Results reported in US9682938B2, “Pyrazolone derivatives as nitroxyl donors” (Cardioxyl Pharmaceuticals, Inc., priority 2014, dated 2017).

Experiments:
Assay type in all cases: in vitro ADME
[1] = In vitro plasma stability, dog plasma; conditions: male, pH 7.4, 5 μM, 37° C., sampling 0-360 minutes, read-out: T1/2 Dog
Experimental: (§1) Certain compounds from Table 1 were tested for their stability in plasma. The assay system comprised plasma from rat, dog or human (at least 3 donors, male, pooled) at pH 7.4, and (ii) an anticoagulant (sodium heparin or sodium citrate). Each test compound (5 μM) was incubated in plasma at 37° C. on a THERMOMIXER® with shaking. Three samples (n=3) were taken at each of seven sampling time points: 0, 10, 30, 60, 90, 180 and 360 minutes. The samples were immediately combined with 3 volumes (i.e., 3 times the volume of plasma) of acetonitrile containing 1% formic acid and an internal standard to terminate the reaction. AB SCIEX API 3000 LC-MS/MS analysis of the test compounds was performed without a standard curve. Plasma half-lives (T1/2) of the test compounds were determined from graphs of the percent remaining values using the peak area response ratio.

[2] = In vitro plasma stability, human plasma; conditions: male, pH 7.4, 5 μM, 37° C., sampling 0-360 minutes, read-out: T1/2 Human
Experimental: as §1

[3] = In vitro plasma stability, rat plasma; conditions: male, pH 7.4, 5 μM, 37° C., sampling 0-360 minutes, read-out: T1/2 Rat
Experimental: as §1

Row | SMILES | half-life at 5 μM [1] | half-life at 5 μM [2] | half-life at 5 μM [3]
1 | CN1N=C(c2ccc(C(=O)N3CCOCC3)cc2)C(C)(NO)C1=O (stereo not drawn) [Compound 81, 4-(Hydroxyamino)-1,4-dimethyl-3-[4-(morpholine-4-carbonyl)phenyl]-4,5-dihydro-1H-pyrazol-5-one] | 84 min | 76 min | 148 min
2 | CN1N=C(c2ccc(S(C)(=O)=O)c(N3CCOCC3)c2)C(C)(NO)C1=O (stereo not drawn) [Compound 82, 4-(Hydroxyamino)-3-[4-methanesulfonyl-3-(morpholin-4-yl)phenyl]-1,4-dimethyl-4,5-dihydro-1H-pyrazol-5-one] | 56 min | 46 min | 69 min
3 | COCCN(C)c1cc(C2=NN(C)C(=O)C2(C)NO)ccc1S(C)(=O)=O (stereo not drawn) [Compound 83, 4-(Hydroxyamino)-3-{4-methanesulfonyl-3-[(2-methoxyethyl)(methyl)amino]phenyl}-1,4-dimethyl-4,5-dihydro-1H-pyrazol-5-one] | 66 min | 51 min | 89 min
4 | CN1N=C(c2ccc(C(=O)N3CCC(F)(F)CC3)cc2)C(C)(NO)C1=O (stereo not drawn) [Compound 85, 3-[4-(4,4-Difluoropiperidine-1-carbonyl)phenyl]-4-(hydroxyamino)-1,4-dimethyl-4,5-dihydro-1H-pyrazol-5-one] | 86 min | 105 min | 125 min
5 | CCS(=O)(=O)c1ccc(C2=NN(C)C(=O)C2(C)NO)cc1 (stereo not drawn) [Compound 86, 3-[4-(Ethanesulfonyl)phenyl]-4-(hydroxyamino)-1,4-dimethyl-4,5-dihydro-1H-pyrazol-5-one] | 39 min | 47 min | 61 min
6 | CN1N=C(c2ccc(S(C)(=O)=O)c(N(C)C)c2)C(C)(NO)C1=O (stereo not drawn) [Compound 87, 3-[3-(Dimethylamino)-4-methanesulfonylphenyl]-4-(hydroxyamino)-1,4-dimethyl-4,5-dihydro-1H-pyrazol-5-one] | 42 min | 47 min | 63 min
7 | CN1CCN(c2cc(C3=NN(C)C(=O)C3(C)NO)ccc2S(C)(=O)=O)CC1 (stereo not drawn) [Compound 88, 4-(Hydroxyamino)-3-[4-methanesulfonyl-3-(4-methylpiperazin-1-yl)phenyl]-1,4-dimethyl-4,5-dihydro-1H-pyrazol-5-one] | 42 min | 49 min | 65 min
8 | CN1N=C(c2ccc(S(=O)(=O)c3ccccc3)cc2)C(C)(NO)C1=O (stereo not drawn) [Compound 89, 3-[4-(Benzenesulfonyl)phenyl]-4-(hydroxyamino)-1,4-dimethyl-4,5-dihydro-1H-pyrazol-5-one] | 29 min | 57 min | 36 min
9 | COCCN(C)S(=O)(=O)c1ccc(C2=NN(C)C(=O)C2(C)NO)cc1 (stereo not drawn) [Compound 90, 4-[4-(Hydroxyamino)-1,4-dimethyl-5-oxo-4,5-dihydro-1H-pyrazol-3-yl]-N-(2-methoxyethyl)-N-methylbenzene-1-sulfonamide] | 37 min | 49 min | 72 min
10 | CN1N=C(c2ccc(C(N)=O)cc2)C(C)(NO)C1=O (stereo not drawn) [Compound 92, 4-[4-(Hydroxyamino)-1,4-dimethyl-5-oxo-4,5-dihydro-1H-pyrazol-3-yl]benzamide] | 166 min | 169 min | 270 min
11 | CN1N=C(c2ccc(S(C)(=O)=O)c(N3CCNCC3)c2)C(C)(NO)C1=O (stereo not drawn) [Compound 93, 4-(Hydroxyamino)-3-[4-methanesulfonyl-3-(piperazin-1-yl)phenyl]-1,4-dimethyl-4,5-dihydro-1H-pyrazol-5-one] | 32 min | 35 min | 66 min
12 | C[C@H](NC(=O)c1ccc(C2=NN(C)C(=O)C2(C)NO)cc1)C(=O)O (stereo partly drawn) [Compound 94] | 114 min | 103 min | 191 min
13 | CN1N=C(c2ccc(S(C)(=O)=O)c(C(F)(F)F)c2)C(C)(NO)C1=O (stereo not drawn) [Compound 97, 4-(Hydroxyamino)-3-[4-methanesulfonyl-3-(trifluoromethyl)phenyl]-1,4-dimethyl-4,5-dihydro-1H-pyrazol-5-one] | 32 min | 25 min | 23 min
14 | CC1=NN(C)C(=O)C1(NO)c1cccc(C)c1 (stereo not drawn) [Compound 98, 4-(Hydroxyamino)-1,3-dimethyl-4-(3-methylphenyl)-4,5-dihydro-1H-pyrazol-5-one] | 16 min | 12 min | 11 min
15 | CN1N=C(c2ccc(S(C)(=O)=O)c(S(C)(=O)=O)c2)C(C)(NO)C1=O (stereo not drawn) [Compound 104, 3-(3,4-Dimethanesulfonylphenyl)-4-(hydroxyamino)-1,4-dimethyl-4,5-dihydro-1H-pyrazol-5-one] | 33 min | 28 min | 59 min
16 | CC1=NN(C)C(=O)C1(NO)/C(C)=N/OCC(C)C (stereo not drawn) [Compound 105, 4-(Hydroxyamino)-1,3-dimethyl-4-[1-[(2-methylpropoxy)imino]ethyl]-4,5-dihydro-1H-pyrazol-5-one] | 4 min | 6 min | 4 min
17 | CCO/N=C(\C)C1(NO)C(=O)N(C)N=C1C (stereo not drawn) [Compound 106, 4-[1-(Ethoxyimino)ethyl]-4-(hydroxyamino)-1,3-dimethyl-4,5-dihydro-1H-pyrazol-5-one] | 8 min | 6 min | 7 min
18 | CO/N=C(\C)C1(NO)C(=O)N(C)N=C1c1ccc(OC)cc1 (stereo not drawn) [Compound 107, 4-(Hydroxyamino)-4-[1-(methoxyimino)ethyl]-3-(4-methoxyphenyl)-1-methyl-4,5-dihydro-1H-pyrazol-5-one] | 10 min | 18 min | 49 min
19 | CN1N=C(c2ccc(Br)cc2)C(C)(NO)C1=O (stereo not drawn) [Compound 108, 3-(4-Bromophenyl)-4-(hydroxyamino)-1,4-dimethyl-4,5-dihydro-1H-pyrazol-5-one] | 136 min | 61 min | 89 min
20 | CN1N=C(c2ccccc2)C(NO)(c2ccccc2)C1=O (stereo not drawn) [Compound 109, 4-(Hydroxyamino)-1-methyl-3,4-diphenyl-4,5-dihydro-1H-pyrazol-5-one] | 11 min | 10 min | 8 min
21 | CCOC1=NN(c2ccccc2)C(=O)C1(NO)/C(C)=N/OC (stereo not drawn) [Compound 110, 3-Ethoxy-4-(hydroxyamino)-4-[1-(methoxyimino)ethyl]-1-phenyl-4,5-dihydro-1H-pyrazol-5-one] | 12 min | 11 min | 62 min
22 | CCOC1=NN(c2ccc(Br)cc2)C(=O)C1(NO)/C(C)=N/OC (stereo not drawn) [Compound 111, 1-(4-Bromophenyl)-3-ethoxy-4-(hydroxyamino)-4-[1-(methoxyimino)ethyl]-4,5-dihydro-1H-pyrazol-5-one] | 24 min | 29 min | 23 min
23 | CN1N=C(c2ccc(S(=O)(=O)N3CCC(F)(F)CC3)cc2)C(C)(NO)C1=O (stereo not drawn) [Compound 114, 3-{4-[(4,4-Difluoropiperidin-1-yl)sulfonyl]phenyl}-4-(hydroxyamino)-1,4-dimethyl-4,5-dihydro-1H-pyrazol-5-one] | 42 min | 25 min | 49 min
